Measured values taken from ChEMBL document CHEMBL5252641, “Design, synthesis, and evaluation of benzofuran-based chromenochalcones for antihyperglycemic and antidyslipidemic activities” (RSC Med Chem, 2023).
Active and inactive are the calls of the source. No cut-off for these calls is given here.

Legend:
Mus musculus [1] = assay: Antidiabetic activity in db/db mouse assessed as decrease in postprandial blood glucose at 30 mg/kg measured after 9 days; assay type: functional, organism-based; details: time 9.0 day
L6 [2] = assay: Induction of GLUT4myc translocation to rat L6 cells surface measured after 16 hrs by colorimetric assay; assay type: functional, cell-based; details: dose 5-25 µM
Mus musculus [3] = organism: Mus musculus; assay: Antidiabetic activity in db/db mouse assessed as increase in GLUT4 level incubated for 15 mins by Western blot analysis; assay type: functional, organism-based
L6 [4] = assay: Induction of glucose uptake in rat L6 cells expressing GLUT4 myc epitopes at 10 uM incubated for 24 hrs by scintillation counting method relative to control; assay type: functional
Mus musculus [5] = assay: Antidiabetic activity in db/db mouse assessed as decrease in serum insulin levels at 30 mg/kg administered for 15 consecutive days by oral glucose tolerance test relative to control; assay type: functional; design: scale not given: the % may be the effect or the level left; details: time 15 day
Syrian golden hamster [6] = assay: Antidyslipidemic activity in Triton-induced hyperlipidemic Syrian golden hamster model assessed as decrease in triglyceride level at 50 mg/kg measured after 18 hrs; assay type: functional, Mesocricetus auratus; design: scale not given: the % may be the effect or the level left
L6 [7] = assay: Induction of insulin stimulated glucose uptake in rat L6 cells expressing GLUT4 myc epitopes at 10 uM preincubated for 16 hrs followed by 3 hrs incubation under serum deprived medium prior to insulin stimulation for 20 mins; assay type: functional, cell-based; details: time 1160.0 min
Syrian golden hamster [8] = assay: Antidyslipidemic activity in Triton-induced hyperlipidemic Syrian golden hamster model assessed as increase in post-heparin lipolytic activity at 50 mg/kg measured after 18 hrs; assay type: functional, Mesocricetus auratus
Rattus norvegicus [9] = assay: Antidiabetic activity in streptozotocin induced hyperglycemic Wistar rat model assessed as improvement in blood glucose level at 100 mg/kg,po measured upto 24 hrs relative to control; assay type: functional
Mus musculus [10] = assay: Antidiabetic activity in db/db mouse assessed as decrease in HOMA index at 30 mg/kg administered for 15 consecutive days by oral glucose tolerance test relative to control; assay type: functional; design: scale not given: the % may be the effect or the level left; details: time 15 day
L6 [11] = assay: Cytotoxicity against rat L6 cells assessed as reduction in cell viability at 5 to 100 uM incubated overnight by MTT assay; assay type: toxicity, cell-based; details: l6, 100 µM, dose 5-100 µM
Mus musculus [12] = organism: Mus musculus; assay: Antidiabetic activity in db/db mouse assessed as increase in Akt phosphorylation incubated for 15 mins by Western blot analysis; assay type: functional, organism-based
Syrian golden hamster [13] = assay: Antidyslipidemic activity in Triton-induced hyperlipidemic Syrian golden hamster model assessed as decrease in PL level at 50 mg/kg measured after 18 hrs; assay type: functional, Mesocricetus auratus; design: scale not given: the % may be the effect or the level left
Mus musculus [14] = organism: Mus musculus; assay: Antidyslipidemic activity in db/db mouse assessed as decrease in serum cholesterol level measured after 15 days relative to control; assay type: functional; design: scale not given: the % may be the effect or the level left; details: time 15 day
L6 [15] = assay: Induction of glucose uptake in rat L6 cells expressing GLUT4 myc epitopes at 5 uM incubated for 24 hrs by scintillation counting method relative to control; assay type: functional
Mus musculus [16] = assay: Antidiabetic activity in db/db mouse assessed as decrease in rise of postprandial hyperglycemia at 30 mg/kg measured after 10 days post glucose challenge by oral glucose tolerance test relative to control; assay type: functional; design: scale not given: the % may be the effect or the level left; details: time 10 day
Mus musculus [17] = assay: Antidiabetic activity in db/db mouse assessed as decrease in fasting blood glucose level at 30 mg/kg administered for 15 consecutive days by oral glucose tolerance test relative to control; assay type: functional; design: scale not given: the % may be the effect or the level left; details: time 15 day
Rattus norvegicus [18] = assay: Antidiabetic activity in streptozotocin induced hyperglycemic Wistar rat model assessed as improvement in blood glucose level at 100 mg/kg,po measured upto 5 hrs relative to control; assay type: functional
Mus musculus [19] = organism: Mus musculus; assay: Antidyslipidemic activity in db/db mouse assessed as effect on body weight measured after 9 days; assay type: functional, organism-based; details: time 9.0 day
Syrian golden hamster [20] = assay: Antidyslipidemic activity in Triton-induced hyperlipidemic Syrian golden hamster model assessed as increase in lecithin-cholesterol acyltransferase level at 50 mg/kg measured after 18 hrs; assay type: functional, Mesocricetus auratus
[21] = Antioxidant activity assessed as hydroxyl radical scavenging activity at 100 uM incubated for 90 mins by spectrophotometric analysis; assay type: functional
Syrian golden hamster [22] = assay: Antidyslipidemic activity in Triton-induced hyperlipidemic Syrian golden hamster model assessed as decrease in total cholesterol level at 50 mg/kg measured after 18 hrs; assay type: functional, Mesocricetus auratus; design: scale not given: the % may be the effect or the level left
L6 [23] = assay: Induction of GLUT4myc translocation to rat L6 cells surface at 5 to 25 uM incubated for 20 mins followed by insulin stimulation by colorimetric assay; assay type: functional, cell-based; details: dose 5-25 µM
Mus musculus [24] = organism: Mus musculus; assay: Antidyslipidemic activity in db/db mouse assessed as increase in serum HDL-cholesterol level measured after 15 days relative to control; assay type: functional; details: time 15 day
[25] = Antioxidant activity assessed as superoxide anion radical scavenging activity at 100 uM incubated for 30 mins by spectrophotometric analysis; assay type: functional
Mus musculus [26] = organism: Mus musculus; assay: Antidyslipidemic activity in db/db mouse assessed as decrease in serum triglyceride level measured after 15 days relative to control; assay type: functional; design: scale not given: the % may be the effect or the level left; details: time 15 day
Mus musculus [27] = assay: Antidiabetic activity in db/db mouse assessed as decrease in rise of postprandial hyperglycemia at 30 mg/kg measured after 15 days post glucose challenge by oral glucose tolerance test relative to control; assay type: functional; design: scale not given: the % may be the effect or the level left; details: time 15 day

With `CC1(C)C=Cc2ccc(O)c(C(=O)/C=C/c3ccc4oc(C(=O)c5ccccc5)cc4c3)c2O1` the Activity (Mus musculus [1]) was “Active”, the Activity (L6 [2]) was “Dose-Dependent Effect” and the Activity (Mus musculus [3]) was “Active”. It also gave an Activity (L6 [4]) of 249%, an Activity (Mus musculus [5]) of 23.8% and an Activity (Syrian golden hamster [6]) of 18%. The Activity (L6 [7]) was “inactive”, the Activity (Syrian golden hamster [8]) was 24% and the Activity (Rattus norvegicus [9]) was 25.1%. The Activity (Mus musculus [10]) was 39.8%, the Activity (L6 [11]) was “Non-Toxic” and the Activity (Mus musculus [12]) was “Active”. The Activity (Syrian golden hamster [13]) was 24%, the Activity (Mus musculus [14]) was 21% and the Activity (L6 [15]) was 82%. It also gave an Activity (Mus musculus [16]) of 18.2%, an Activity (Mus musculus [17]) of 25% and an Activity (Rattus norvegicus [18]) of 22.8%. The Activity (Mus musculus [19]) was “Active”, the Activity (Syrian golden hamster [20]) was 18% and the Activity [21] was 16. The Activity (Syrian golden hamster [22]) was 21%, the Activity (L6 [23]) was “Active” and the Activity (Mus musculus [24]) was 45.2%. The Activity [25] was 18, the Activity (Mus musculus [26]) was 26.5% and the Activity (Mus musculus [27]) was 29.1%.
